Each structure is given as a SMILES string.

Holding throughout (assay type): in vitro ADME
Data set [1] concerns the target T1, CYP1A2 (Homo sapiens, UniProt P05177).
T1 construct: 150-donor pooled human liver microsomes (purchased from Corning, Cat. No. 452117); tissue Corning 452117; host or cells: 150-donor pooled human liver microsomes
T1 sequence (P05177 1-516): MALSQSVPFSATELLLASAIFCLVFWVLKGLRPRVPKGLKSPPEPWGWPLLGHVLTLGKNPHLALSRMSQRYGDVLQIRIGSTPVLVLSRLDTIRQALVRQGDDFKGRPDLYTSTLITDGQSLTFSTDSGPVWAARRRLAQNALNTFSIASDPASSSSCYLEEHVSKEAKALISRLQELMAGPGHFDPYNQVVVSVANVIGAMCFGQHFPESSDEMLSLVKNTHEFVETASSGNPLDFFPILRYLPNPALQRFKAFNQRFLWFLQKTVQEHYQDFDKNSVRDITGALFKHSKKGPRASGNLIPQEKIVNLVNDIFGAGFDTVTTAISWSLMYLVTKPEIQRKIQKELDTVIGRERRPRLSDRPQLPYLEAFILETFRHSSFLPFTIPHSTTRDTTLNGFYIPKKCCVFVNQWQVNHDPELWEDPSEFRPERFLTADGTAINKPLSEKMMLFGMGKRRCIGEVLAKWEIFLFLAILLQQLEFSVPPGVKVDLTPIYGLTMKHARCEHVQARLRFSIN
The data set is described as follows: CYP inhibition assay in pooled human liver microsomes (phenacetin). To be noted: human liver microsomes 0.2 mg/mL, substrate phenacetin; read-out: CYP 1A2 (μM) IC50. How it is done:
(§1) The metabolic reactions of representative substrates of 5 major human CYP subtypes (CYP1A2, CYP2C9, CYP2C19, CYP2D6, CYP3A4/5) were evaluated using 150-donor pooled human liver microsomes (purchased from Corning, Cat. No. 452117). The effects of different concentrations of the test compounds on the metabolic reactions of phenacetin (CYP1A2), diclofenac sodium (CYP2C9), S-mephenytoin (CYP2C19), bufuralol hydrochloride (CYP2D6) and midazolam (CYP3A4/5) were determined by liquid chromatography-tandem mass spectrometry (LC/MS/MS).
(§2) 30 μM phenacetin, 10 μM diclofenac sodium, 35 μM S-mephenytoin, 5 μM bufuralol hydrochloride, 3 μM midazolam, 1 mM NADPH, and test compounds (at concentrations of 0.1 μmol/L, 0.3 μmol/L, 1 μmol/L, 3 μmol/L, 10 μmol/L, and 30 μmol/L, respectively) or positive compound or blank were incubated with 200 μL of a reaction system of pooled human liver microsomes (0.2 mg/mL) (100 mmol/L phosphate buffer, pH 7.4, containing 0.3% by volume of DMSO, 0.6% by volume of acetonitrile, and 0.1% by volume of methanol) at 37° C. for 5 min. Then, 200 μL of acetonitrile containing 3% formic acid and 40 nM internal standard verapamil was added, and the mixture was centrifuged at 4000 rpm for 50 min. The mixture was cooled on ice for 20 min and centrifuged at 4000 rpm for 20 min to precipitate the protein. 200 μL of the supernatant was analyzed by LC/MS/MS.
(§3) The peak area was calculated from the chromatogram. The residual activity rate (%) was calculated by the following formula:
(§4) peak area rate=peak area of metabolite/peak area of internal standard
(§5) residual activity rate (%)=peak area proportion of the test compound group/peak area proportion of the blank group
(§6) The half maximal inhibitory concentrations (IC50) against CYP were calculated by Excel XLfit 5.3.1.3.

Data set [2] concerns CYP3A4/5. The data set is described as follows: CYP inhibition assay in pooled human liver microsomes (midazolam). To be noted: pH 7.4, probe midazolam (3 μM), human liver microsomes 0.2 mg/mL, substrate midazolam, read-out: CYP 3A4/5 (μM) IC50. How it is done:
as §1, §2, §3, §4, §5, §6

Data set [3] is described as follows: In vitro metabolic stability in human hepatocytes. The settings on record: human hepatocytes 1×10^6 cells/mL, 37° C., up to 120 min; read-out: Intrinsic clearance (uL/min/10^6 cells). The protocol:
The concentrations of the test compounds in the reaction system were determined by LC/MS/MS, so that the intrinsic clearance of the test compounds was calculated, and the in vitro metabolic stability in human hepatocytes was evaluated.
247.5 μL of a mixed solution of human hepatocytes at 1×10^6 cells/mL (purchased from BioreclamationIVT, Cat. No. S01205) and 2.5 μL of 100 μM test compound or positive control was added to a plate to initiate the reaction. The plate was incubated at 37° C. and 600 rpm. 20 μL of incubation system was transferred to a stop plate at 0.5 min, 5 min, 15 min, 30 min, 45 min, 60 min, 80 min, 100 min and 120 min. Then, the mixture was vortexed for 2 min to be mixed well. The stop plate was centrifuged at 4000 rpm for 20 min. 40 μL of supernatant of each compound was transferred to a 96-well sample template, after which 160 μL of pure water was added to dilute the samples.
The resulting samples were quantified from ion chromatogram. The residual rate was calculated from the peak area of the test compound or the positive control. Slope k was determined by linear regression of the […] of residual rates versus incubation time using Microsoft Excel.
Intrinsic clearance (in vitro CLint, μL/min/10^6 cells) was calculated from the slope value according to the following equation:
V=incubation volume (0.25 mL);
N=number of cells per well (0.25×10^6 cells)

With `COC(=O)N1CCOC(Cn2c(-c3c(F)cc(N4CCCC4=O)cc3F)nc3cc(C)ccc32)C1` (stereo not drawn) [Compound 2, Methyl 2-((2-(2,6-difluoro-4-(2-carbonylpyrrolidin-1-yl)phenyl)-5-methyl-1H-benzo[d]imidazol-1-yl)methyl)morpholine-4-carboxylate], the IC50 in data set [1] was over 30 µM. In data set [2], the IC50 at 5 min was over 30 µM. Also, in data set [3], the hepatocyte CLint at 1 μM came to 2.98 µL/min/1e6 cells.
As for `CC(=O)N1CCO[C@@H](Cn2c(-c3c(F)cc(N4CCCC4=O)cc3F)nc3cc(Cl)ccc32)C1` [Compound 10, (S)-1-(4-(1-((4-acetylmorpholin-2-yl)methyl)-5-chloro-1H-benzo[d]imidazol-2-yl)-3,5-difluorophenyl)pyrrolidin-2-one], the IC50 in data set [1] is over 30 µM. Moreover, the IC50 at 5 min in data set [2] was over 30 µM. The hepatocyte CLint at 1 μM in data set [3] is under 1 µL/min/1e6 cells.
For the compound `CC(=O)N1CCOC(Cn2c(-c3c(F)cc(N4CCCC4=O)cc3F)nc3cc(C)ccc32)C1` (stereo in doubt) [Compound 1], the IC50 in data set [1] was over 30 µM. The IC50 at 5 min in data set [2] is over 30 µM. Moreover, in data set [3], the hepatocyte CLint at 1 μM is under 1 µL/min/1e6 cells.
As for `COC(=O)N1CCO[C@@H](Cc2c(-c3c(F)cc(N4CCCC4=O)cc3F)nc3cc(C)ccn23)C1` [Compound 9, Methyl (S)-2-((2-(2,6-difluoro-4-(2-carbonylpyrrolidin-1-yl)phenyl)-7-methylimidazo[1,2-a]pyridin-3-yl)methyl)morpholine-4-carboxylate], the IC50 in data set [1] was over 30 µM. In addition, the IC50 at 5 min in data set [2] is 12.9 µM. Besides, the hepatocyte CLint at 1 μM in data set [3] was 3.86 µL/min/1e6 cells.
Consider `CC(=O)N1CCO[C@@H](Cn2c(-c3ccc(N4CCCC4=O)cc3Cl)nc3cc(C)ccc32)C1` [Compound 3, (S)-1-(4-(1-((4-acetylmorpholin-2-yl)methyl)-5-methyl-1H-benzo[d]imidazol-2-yl)-3-chlorophenyl)pyrrolidin-2-one], for which, in data set [1], the IC50 was over 30 µM. Besides, the IC50 at 5 min in data set [2] was over 30 µM. For the same compound, the hepatocyte CLint at 1 μM in data set [3] turned out to be 4.08 µL/min/1e6 cells.
`[2H]C([2H])([2H])c1ccc2c(c1)nc(-c1c(F)cc(N3CCCC3=O)cc1F)n2C[C@H]1CN(C(C)=O)CCO1` [Compound 14, (S)-1-(4-(1-((4-acetylmorpholin-2-yl)methyl)-5-(methyl-d3)-1H-benzo[d]imidazol-2-yl)-3,5-difluorophenyl)pyrrolidin-2-one]: the IC50 in data set [1] was over 30 µM. For the same compound, the IC50 at 5 min in data set [2] is over 30 µM. In data set [3], the hepatocyte CLint at 1 μM was under 1 µL/min/1e6 cells.
Regarding `CC(=O)N1CCO[C@@H](Cn2c(-c3c(F)cc(N4CCCC4=O)cc3Cl)nc3cc(C)ccc32)C1` [Compound 4, (S)-1-(4-(1-((4-acetylmorpholin-2-yl)methyl)-5-methyl-1H-benzo[d]imidazol-2-yl)-3-chloro-5-fluorophenyl)pyrrolidin-2-one], the IC50 in data set [1] is over 30 µM. For the same compound, the IC50 at 5 min in data set [2] is over 30 µM. Also, the hepatocyte CLint at 1 μM in data set [3] was under 1 µL/min/1e6 cells.
